Patent publication US20240342235A1, “COMPOSITION FOR TREATING INFLAMMATORY BOWEL DISEASE, COMPRISING COMBINED EXTRACT OF ISATIDIS FOLIUM AND JUGLANS MANDSHURICA” (MTHERA PHARMA CO., LTD., priority 2021, published 2024)

Experiments:
Type in all cases: in vivo, C57BL/6N male mice
[1] = tested on: inflammatory bowel disease animal model (2.5% DSS); test: Body weight change in DSS-treated mice (Example 1); details: 100 mg/kg oral, 2.5% DSS in drinking water, 7 days; body weight before DSS = 100%; negative control 89.31±2.75%, normal 105.64±0.54%
Experimental: 6-week-old C57BL/6N male mice were purchased and pre-bred for one week, and then they were randomly divided into a total of 5 groups of 8 mice per group, and an experiment was conducted as shown in Table 1 below. 2.5% dextran sulfate sodium (DSS) diluted in sterile water was administered in drinking water for a total of 8 days, and 5-aminosalicylic acid (5-ASA), which is a therapeutic agent for inflammatory bowel disease, or the combined extract of the present invention was orally administered for a total of 10 days from 2 days prior to the day of administration with DSS. [table] Body weight loss is a representative symptom of inflammatory bowel disease (Scientific Reports volume 10, Article number: 3829 (2020)). The body weight of the mouse was measured once a day at the same time (10 am) using an electronic scale. The rate of change in body weight of each group was obtained by summing the body weight of 8 mice per group and then dividing by 8. The average body weight immediately before the start of administration of 2.5% DSS in drinking water was set as 100%, and the average body weight of each group was calculated every day to measure the rate of change in body weight. Significance was verified by performing a Student's T test for each group between the negative control group to which 2.5% DSS was administered in drinking water and the experimental group.

[2] = tested on: inflammatory bowel disease animal model (2.5% DSS); test: Length of large intestine in DSS-treated mice (Example 2); details: 100 mg/kg oral, last day of administration, negative control 5.44±0.12 cm, normal 7.48±0.30 cm
Experimental: 6-week-old C57BL/6N male mice were purchased and pre-bred for one week, and then they were randomly divided into a total of 5 groups of 8 mice per group, and an experiment was conducted as shown in Table 1 below. 2.5% dextran sulfate sodium (DSS) diluted in sterile water was administered in drinking water for a total of 8 days, and 5-aminosalicylic acid (5-ASA), which is a therapeutic agent for inflammatory bowel disease, or the combined extract of the present invention was orally administered for a total of 10 days from 2 days prior to the day of administration with DSS. It is known that there is a sufficient correlation between the shortened large intestine and histological changes, and the length of the large intestine is commonly used as a morphological parameter of the degree of inflammation. Therefore, in order to evaluate the length of the large intestine of the mouse according to the administration of the combined extract of the present invention, the mouse of Example 1 was sacrificed on the last day of each administration, and then the length of the large intestine was measured, and the average length is shown in FIG. 2.

[3] = tested on: inflammatory bowel disease animal model (2.5% DSS); test: Weight and length of spleen (spleen ratio) in DSS-treated mice (Example 3); details: 100 mg/kg oral, last day of administration
Experimental: 6-week-old C57BL/6N male mice were purchased and pre-bred for one week, and then they were randomly divided into a total of 5 groups of 8 mice per group, and an experiment was conducted as shown in Table 1 below.
2.5% dextran sulfate sodium (DSS) diluted in sterile water was administered in drinking water for a total of 8 days, and 5-aminosalicylic acid (5-ASA), which is a therapeutic agent for inflammatory bowel disease, or the combined extract of the present invention was orally administered for a total of 10 days from 2 days prior to the day of administration with DSS.
A representative symptom that can occur in relation to inflammatory bowel disease includes splenitis. As such, when the spleen becomes inflamed, the size of the spleen is increased by its nature (Nutrients 2019, 11 (11), 2776), and in fact, it is known that the spleen becomes enlarged in the model of IBD induced after DSS treatment (Biol. Pharm. Bull. 43, 450-457 (2020)). Therefore, in order to evaluate the level of inflammation in the spleen of mice according to the administration of the combined extract of the present invention, the mouse of Example 1 was sacrificed on the last day of each administration, and then the weight and length of the spleen of each group compared to those of the negative control group were measured, and the spleen ratio is shown.

[4] = tested on: inflammatory bowel disease-induced mouse model (2.5% DSS); test: Disease activity index (DAI) evaluation II, combined vs single extracts (Example 5); details: 100 mg/kg oral, 2.5% DSS for 5 days, 5 days after administration
Experimental: In order to evaluate whether the combined extract has a synergistic effect compared to that of individual use of an extract of […] folium and an extract of Juglans mandshurica fruits, 6-week-old C57BL/6N male mice were purchased and pre-bred for one week, and then they were randomly divided into a total of 6 groups of 7 mice per group, and an experiment was conducted as shown in Table 3 below. [table] 2.5% dextran sulfate sodium (DSS) diluted in sterile water was administered in drinking water for a total of 5 days, and 5-aminosalicylic acid (5-ASA), which is a therapeutic agent for inflammatory bowel disease, an extract of […] folium alone, an extract of Juglans mandshurica fruits alone, or the combined extract of the present invention was orally administered for a total of 7 days from 2 days prior to the day of administration with DSS. In addition, the disease activity index was measured in the same manner as the method used in Table 2 above, and the results 5 days after administration are shown in FIG. 5.

myeloperoxidase (MPO) = test: Myeloperoxidase (MPO) activity in large intestine tissue, Mouse MPO ELISA kit (Example 6); details: 100 mg/kg oral for 7 days, 2.5% DSS for 5 days
Experimental: MPO is an enzyme mainly found in neutrophils, and the activity of MPO in tissues is an indicator of neutrophil infiltration, so it is an indicator of inflammatory response and correlates with the level of intestinal damage caused by inflammatory colitis. Therefore, in order to measure the activity of MPO according to the administration of the combined extract of the present invention, an experiment was conducted as shown in Table 3 of Example 5 above.
2.5% dextran sulfate sodium (DSS) diluted in sterile water was administered in drinking water for a total of 5 days, and 5-aminosalicylic acid (5-ASA), which is a therapeutic agent for inflammatory bowel disease, an extract of Isatidis folium alone, an extract of Juglans mandshurica fruits alone, or the combined extract of the present invention was orally administered for a total of 7 days from 2 days prior to the day of administration with DSS. In order to measure the activity of MPO, the Mouse MPO ELISA kit (HK210-02, Hycult biotechnology) was used. […] The homogenized sample was centrifuged at 1500×g for 15 minutes to obtain a supernatant, and then the activity of MPO was measured using the supernatant.

Question: `Nc1ccc(O)c(C(=O)O)c1` [5-ASA, 5-aminosalicylic acid] was tested. Which “rate of change in body weight” value [1] did it give?
Answer: The value was 91.38±2.01%.

Question: And the “length of the large intestine” value [2]?
Answer: Its value is 5.28±0.08 cm.

Question: And the “weight and length of the spleen compared to negative control group” value [3]?
Answer: The value was “decreased”.

Question: What about the “disease activity index compared to negative control group” value [4] of the same molecule?
Answer: The value was “decreased”.

Question: What about the “decrease of the activity of MPO compared to negative control group” value (myeloperoxidase (MPO)) of the same molecule?
Answer: The value was 9.6%.
